# Experimental data published in paper PMC7180617, “Biological Evaluation of 3-Benzylidenechromanones and Their Spiropyrazolines-Based Analogues” (Molecules, 2020).
# Legend:
# [1] = Lipophilicity (logP) by RP-TLC; settings: RP-18 F254S TLC plates
# Text: Lipophilicity is one of the most important physicochemical properties in pharmaceutical research. It can be considered a key determinant of the pharmacokinetic properties of a drug. It is commonly measured by the partition coefficient between water and n-octanol, being expressed as logP [14]. […] Knowledge of the partition coefficient is valuable: it is frequently used in structure–activity relationship (SAR) and quantitative structure–activity relationship (QSAR) studies. The experimental lipophilicity of the synthesized compounds, viz. benzylideneflavanones, benzylidenechromanones and spiropyrazolines, was determined using RP-TLC. […] It is important to examine the relationship between structure of the compound and its lipophilicity and cytotoxicity.
# The RP-TLC experiments were performed on TLC plates (5 × 10 cm) RP-18 F254S (Merck, Darmstadt, Germany). The synthesized compounds were dissolved in N,N-dimethylformamide DMF (2 mg/mL). […] A DMF-water solvent system was used as mobile phase. […] All experiments were performed at room temperature. The logP parameter was calculated using the equation from the calibration curve.
# [2] = Red blood cell lysis assay; assay type: cell-based; settings: human, 2% red blood cell suspension, 2% RBC suspension, 37 °C, Triton X-100 = 100%, read-out: percentage of hemolysis
# Text: (§1) All synthesized compounds with potential biological activity have to be tested for blood compatibility since xenobiotics will react with blood cells upon administration. In this case, biocompatibility refers to the quantification of cellular and plasma components of the blood. The measurement of the integrity of RBC membrane is considered a simple and reliable method for estimating hemocompatibility.
# (§2) The studies on biological material were approved by the Bioethics Committee of the Medical University of Lodz, Poland (RNN/109/16/KE). The blood samples were obtained from healthy donors at the Blood Donation Centre in Lodz. The procedure for plasma preparation for erythrotoxicity studies was described previously. The influence of synthesized compounds as well as two reference compounds flavanone and chromanone on RBC membrane integrity was performed by lysis assay which was conducted according to our previous protocol. Briefly, 2% RBC suspension in 0.9% NaCl was incubated at 37 °C for one hour with the tested compounds at various concentrations corresponding to their activity towards cancer cell lines or 0.9% NaCl (control). The samples were centrifuged at 3000 rpm for 10 min and the absorbance of the supernatant was measured at 550 nm. The results are presented as percentage of haemolysis where a sample containing 10 μL of 2.0% v/v Triton X-100 was regarded as a positive control contributing to 100% of haemolysis. A sample containing saline solution represented spontaneous haemolysis of RBCs (control). The studies were performed on four biological samples obtained from different blood donors (n = 4). The results are presented as mean ± standard deviation (SD). The coefficient of variability for the method was counted: W = 9.51%, n = 5.
# [3] = test system: red blood cells (RBC membrane integrity); assay: Red blood cell lysis assay; assay type: cell-based; settings: 2% RBC suspension, 37 °C, 1 h
# Text: as §1, §2
# erythrocytes = assay: Red blood cell morphology (phase-contrast microscopy); assay type: cell-based; settings: 2% erythrocyte suspension, 37 °C, 1 h, phase contrast 400×
# Experimental: Studies on erythrocyte morphology complement the erythrotoxicity studies because they provide information on potential immediate interactions of the tested compounds with the erythrocyte lipid bilayer, and the possibility of creating pathological forms of erythrocytes, which are not able to carry oxygen. The effects of the synthesized compounds, and the two reference compounds chromanone and flavanone, on the morphology of erythrocytes is shown in Figure 6. Briefly, 2% RBC suspension was incubated with 0.9% NaCl (control samples) or tested compounds at various concentrations corresponding to their activity towards cancer cell lines.
# A 2% erythrocyte suspension was incubated at 37 °C for one hour with various concentrations of synthesized compounds. The morphology of the RBCs was examined by means of a phase contrast Opta-Tech inverted microscope, at 400× magnification, equipped with software (OptaView 7) for image analysis.
# NALM-6 cells = assay: MTT cytotoxicity assay, NALM-6; assay type: cell-based, human; settings: Homo sapiens, 46 h + 2 h incubation
# Experimental: (§3) The first stage of the study used the MTT viability test to determine the cytotoxicity of ten compounds, i.e., 3-arylidenechromanone, 3-arylideneflavanone, spirochromanone and spiro- flavanone analogues, against four human cancer cell lines: HL-60, NALM-6, WM-115 and COLO-205.
# (§4) Cytotoxicity was tested against human skin melanoma cells (WM-115, ECACC, Salisbury, UK), two human leukemia cell lines, viz. promyelocytic leukemia (HL-60) and lymphoblastic leukemia (NALM-6), and human colon adenocarcinoma cells (COLO-205). The cell lines COLO-205, WM-115 and HL-60 used in this work came from the ATCC American Type Culture Collection (Manassas, VA, USA), whereas the NALM-6 cell line was purchased from the German Collection of Microorganisms and Cell Cultures (Braunschweig, Germany). The leukaemia cells and colon adenocarcinoma were cultured in RPMI 1640 medium (Invitrogen, Grand Island, NY, USA) supplemented with 10% fetal bovine serum (FBS; Invitrogen) and gentamicin (25 µg/mL; KRKA, Novo Mesto, Slovenia). For melanoma WM-115 cells, Dulbecco’s minimal essential medium (DMEM; Invitrogen) was used. All cell lines were cultured at 37 °C in a humidified atmosphere of 5% CO2 in air.
# (§5) For all experiments, the studied compounds were dissolved in DMSO (Sigma-Aldrich) and were further diluted in culture medium to obtain <0.1% DMSO concentration. In each experiment, controls with and without 0.1% DMSO were performed. The cytotoxicity of all compounds and of the reference compounds 4-chromanone and 3-benzylideneflavanone was determined by the MTT assay, i.e., 3-(4,5-dimethylthiazol-2-yl)-2,5-diphenyltetrazolium bromide (Sigma, St. Louis, MO, USA), which measures cellular dehydrogenase activity. Exponentially growing cells were seeded a day before the experiment onto a 96-well microplates (Nunc, Roskilde, Denmark) at a density up to 6–8 × 10^3 cells/well (depending on the cell line). Subsequently, various concentrations of the studied compounds freshly prepared in DMSO and diluted with complete culture medium were added. All compounds were tested for their cytotoxicity at a final concentration of 10^−7–10^−3 M. After 46 h of incubation with the studied compounds, the cells were treated with the MTT reagent and incubation was continued for another two hours. MTT – formazan crystals were dissolved in 20% sodium dodecyl sulphate (SDS, Sigma-Aldrich) and 50% DMF (Sigma-Aldrich) at pH 4.7; following this, absorbance was read at 570 nm on a multifunctional Victor ELISA-plate reader (Perkin Elmer, Turku, Finland). The IC50 values, i.e., the concentration of the test compound required to reduce the cell survival fraction to 50% of controls, were calculated from concentration-response curves and used as a measure of the sensitivity of the cells to a given treatment. As a control, cultured cells were grown in the absence of drugs. The data points represent the means of at least five to ten repeats ± standard deviation (S.D.).
# WM-115 cells = assay: MTT cytotoxicity assay, WM-115; assay type: cell-based, human; settings: Homo sapiens, WM-115, 48 h, MTT, 46 h + 2 h incubation
# Experimental: as §3, §4, §5
# HL-60 cells = assay: MTT cytotoxicity assay, HL-60; assay type: cell-based, human; settings: for IC50: Homo sapiens, 46 h + 2 h incubation
# Experimental: as §3, §4, §5
# COLO-205 cells = assay: MTT cytotoxicity assay, COLO-205; assay type: cell-based, human; settings: Homo sapiens, COLO 205, 48 h, 46 h + 2 h incubation
# Experimental: as §3, §4, §5
compound,measurement,setting,value
"COc1ccc(/C=C2\COc3ccccc3C2=O)cc1 [Compound 3, (E)-3-(4-methoxybenzylidene)chroman-4-one]",chromatographic logP,[1],4.08
same,hemolysis at 1 h,[2],≤ 5%
same,effect on RBC hemolysis / erythrocyte membrane integrity (in words),[3],significant disintegration of the erythrocyte membrane at concentrations above 25 µM
same,erythrocyte morphology (in words),erythrocytes,echinocytes accounted for the major part of erythrocytes
same,IC50,"NALM-6 cells; NALM-6, 48 h, MTT",30.1 ± 3.15 µM
same,IC50,WM-115 cells,23.5 ± 1.71 µM
same,IC50,"HL-60 cells; HL-60, 48 h, MTT",45.4 ± 4.77 µM
same,IC50,COLO-205 cells,193 ± 2.9 µM
"COc1ccc(C2CN=NC23COc2ccccc2C3=O)cc1 (centres unmarked) [Compound 4, 4′-[(4-methoxy)phenyl]-4′,5′-dihydro-4H-spiro[chroman-3,3′-pirazol]-4-one]",chromatographic logP,[1],4.68
same,hemolysis at 1 h,[2],≤ 5%
same,effect on RBC hemolysis / erythrocyte membrane integrity (in words),[3],significant disintegration of the erythrocyte membrane at concentrations above 25 µM
same,erythrocyte morphology (in words),erythrocytes,echinocytes accounted for the major part of erythrocytes
same,IC50,"NALM-6 cells; NALM-6, 48 h, MTT",72.6 ± 4.56 µM
same,IC50,WM-115 cells,75.3 ± 4.89 µM
same,melting point,,109 to 111.3 °C
same,IC50,"HL-60 cells; HL-60, 48 h, MTT",74 ± 1.85 µM
same,IC50,COLO-205 cells,26.5 ± 1.8 µM
"O=C1CCOc2ccccc21 [Compound 4-Chromanone, 4-Chromanone, reference compound]",chromatographic logP,[1],2.19
same,effect on RBC hemolysis / erythrocyte membrane integrity (in words),[3],Neither flavanone nor chromanone was found to have any unfavourable effect on the erythrocyte membrane over the whole concentration range
same,erythrocyte morphology (in words),erythrocytes,echinocyte formation was observed
same,IC50,"NALM-6 cells; NALM-6, MTT",674 ± 22.5 µM
same,IC50,WM-115 cells,> 1000 µM
same,IC50,"HL-60 cells; HL-60, MTT",677 ± 32.6 µM
same,IC50,COLO-205 cells,721.5 ± 6.4 µM
"O=C1c2ccccc2OC(c2ccccc2)C12N=NCC2c1ccccc1 (centres unmarked) [Compound 6, 2′-phenylchromanone-3′-spiro-3,4-phenyl-1-pyrazoline]",chromatographic logP,[1],5.88
same,erythrocyte morphology (in words),erythrocytes,echinocytes accounted for the major part of erythrocytes
same,IC50,"NALM-6 cells; NALM-6, 48 h, MTT",44.4 ± 6.3 µM
same,IC50,WM-115 cells,57.4 ± 5.8 µM
same,melting point,,126.5 to 127 °C
same,fold lower cytotoxicity against HL-60 than compound 2,"HL-60 cells; HL-60, compared with compound 2",more than 330 fold
same,IC50,"HL-60 cells; HL-60, 48 h, MTT",> 1000 µM
same,IC50,COLO-205 cells,53.6 ± 1.6 µM
"O=C1c2ccccc2OCC12N=NCC2c1ccccc1 (centres unmarked) [Compound 8, 4′-phenyl-4′,5′-dihydro-4H-spiro[chromano-3,3′-pirazol]-4-one]",chromatographic logP,[1],2.35
same,effect on RBC hemolysis / erythrocyte membrane integrity (in words),[3],significantly greater disintegration of RBC membrane was reported at concentrations of 250 µM and 500 µM
same,IC50,"NALM-6 cells; NALM-6, 48 h, MTT",282 ± 49.4 µM
same,IC50,WM-115 cells,415 ± 75.4 µM
same,melting point,,141 to 142 °C
same,IC50,"HL-60 cells; HL-60, 48 h, MTT",474 ± 29 µM
same,IC50,COLO-205 cells,> 1000 µM
"O=C1CC(c2ccccc2)Oc2ccccc21 (centres unmarked) [flavanone, reference compound]",effect on RBC hemolysis / erythrocyte membrane integrity (in words),[3],Neither flavanone nor chromanone was found to have any unfavourable effect on the erythrocyte membrane over the whole concentration range
same,erythrocyte morphology (in words),erythrocytes,echinocyte formation was observed
